The values below come from PubChem BioAssay AID1259407 (Chemical Carcinogenesis Research Information System (CCRIS), 2018).

The data set concerns CCRIS mutagenicity, Ames/micronucleus/aberration tests. Kind of data set: CCRIS mutagenicity studies.
Where [1] appears, read: Test System: AMES SALMONELLA TYPHIMURIUM, Strain/Indicator: TA98, Metabolic Activation: NONE, Method: PREINCUBATION
Setting [2] is: Test System: AMES SALMONELLA TYPHIMURIUM, Strain/Indicator: TA100, Metabolic Activation: NONE, Method: PREINCUBATION
Where [3] appears, read: Test System: AMES SALMONELLA TYPHIMURIUM, Strain/Indicator: TA1537, Metabolic Activation: NONE, Method: STANDARD PLATE.
The mark [4] stands for this setting: Test System: AMES SALMONELLA TYPHIMURIUM, Strain/Indicator: TA100, Metabolic Activation: RAT, LIVER, S-9, PCB, Method: PREINCUBATION
[5] abbreviates: Test System: AMES SALMONELLA TYPHIMURIUM, Strain/Indicator: TA98, Metabolic Activation: NONE, Method: STANDARD PLATE.
Setting [6] is: Test System: AMES SALMONELLA TYPHIMURIUM, Strain/Indicator: TA98, Metabolic Activation: RAT, LIVER, S-9, AROCLOR 1254, Method: STANDARD PLATE.
Setting [7] is: Test System: AMES SALMONELLA TYPHIMURIUM, Strain/Indicator: TA100, Metabolic Activation: NONE, Method: STANDARD PLATE.
Setting [8] is: Test System: AMES SALMONELLA TYPHIMURIUM, Strain/Indicator: TA100, Metabolic Activation: RAT, LIVER, S-9, AROCLOR 1254, Method: STANDARD PLATE.
The mark [9] stands for this setting: Test System: AMES SALMONELLA TYPHIMURIUM, Strain/Indicator: TA1535, Metabolic Activation: NONE, Method: STANDARD PLATE.
The mark [10] stands for this setting: Test System: AMES SALMONELLA TYPHIMURIUM, Strain/Indicator: TA1535, Metabolic Activation: RAT, LIVER, S-9, AROCLOR 1254, Method: STANDARD PLATE.
The mark [11] stands for this setting: Test System: AMES SALMONELLA TYPHIMURIUM, Strain/Indicator: TA1537, Metabolic Activation: RAT, LIVER, S-9, AROCLOR 1254, Method: STANDARD PLATE.
The mark [12] stands for this setting: Test System: AMES SALMONELLA TYPHIMURIUM, Strain/Indicator: TA1538, Metabolic Activation: NONE, Method: STANDARD PLATE.
Setting [13] is: Test System: AMES SALMONELLA TYPHIMURIUM, Strain/Indicator: TA1538, Metabolic Activation: RAT, LIVER, S-9, AROCLOR 1254, Method: STANDARD PLATE.

Active and inactive are the calls of the source. How the calls were made is not given here.

Consider `CCCCC(CC)COP(OCC(CC)CCCC)OCC(CC)CCCC` (centres undefined), for which the mutagenic call (Test System: AMES SALMONELLA TYPHIMURIUM, Strain/Indicator: TA98, Metabolic Activation: HAMSTER, LIVER, S-9, AROCLOR 1254 (10%), Method: PREINCUBATION) is “inactive; negative”; the mutagenic call under setting [1] was “inactive; negative”; the mutagenic call (Test System: AMES SALMONELLA TYPHIMURIUM, Strain/Indicator: TA98, Metabolic Activation: RAT, LIVER, S-9, AROCLOR 1254 (10%), Method: PREINCUBATION) was “inactive; negative”; the mutagenic call (Test System: AMES SALMONELLA TYPHIMURIUM, Strain/Indicator: TA100, Metabolic Activation: HAMSTER, LIVER, S-9, AROCLOR 1254 (10%), Method: PREINCUBATION) is “inactive; negative”; the mutagenic call under setting [2] is “inactive; negative”; the mutagenic call (Test System: AMES SALMONELLA TYPHIMURIUM, Strain/Indicator: TA100, Metabolic Activation: RAT, LIVER, S-9, AROCLOR 1254 (10%), Method: PREINCUBATION) is “inactive; negative”. The mutagenic call by setting is: (Test System: AMES SALMONELLA TYPHIMURIUM, Strain/Indicator: TA1535, Metabolic Activation: HAMSTER, LIVER, S-9, AROCLOR 1254 (10%), Method: PREINCUBATION) “inactive; negative”; (Test System: AMES SALMONELLA TYPHIMURIUM, Strain/Indicator: TA1535, Metabolic Activation: NONE, Method: PREINCUBATION) “inactive; negative”; (Test System: AMES SALMONELLA TYPHIMURIUM, Strain/Indicator: TA1535, Metabolic Activation: RAT, LIVER, S-9, AROCLOR 1254 (10%), Method: PREINCUBATION) “inactive; negative”; (Test System: AMES SALMONELLA TYPHIMURIUM, Strain/Indicator: TA1537, Metabolic Activation: HAMSTER, LIVER, S-9, AROCLOR 1254 (10%), Method: PREINCUBATION) “inactive; negative”; (Test System: AMES SALMONELLA TYPHIMURIUM, Strain/Indicator: TA1537, Metabolic Activation: NONE, Method: PREINCUBATION) “inactive; negative”; (Test System: AMES SALMONELLA TYPHIMURIUM, Strain/Indicator: TA1537, Metabolic Activation: RAT, LIVER, S-9, AROCLOR 1254 (10%), Method: PREINCUBATION) “inactive; negative”.
Consider `[N-]=[N+]=Nc1ccc2c(Nc3ccc(NS(=O)(=O)CCCN)cc3)c3ccc(N=[N+]=[N-])cc3nc2c1`, for which, under setting [3], the mutagenic call is “active; positive”.
As for `[N-]=[N+]=O`, the mutagenic call (Test System: CHINESE HAMSTER V-79, Strain/Indicator: V-79/8-AZAGUANINE, Metabolic Activation: NONE, Method: STANDARD PLATE) is “active; positive”.
For `C/C=C1/C[C@@H](C)[C@@](C)(O)C(=O)OCC2=CCN3CC[C@@H](OC1=O)[C@@H]23`, the mutagenic call runs as follows: (Test System: AMES SALMONELLA TYPHIMURIUM, Strain/Indicator: TA100, Metabolic Activation: HAMSTER, LIVER, S-9, PCB, Method: PREINCUBATION) “inactive; negative”; under setting [4], “inactive; negative”; (Test System: AMES SALMONELLA TYPHIMURIUM, Strain/Indicator: TA100, Metabolic Activation: RAT, LIVER, S-9, SODIUM PHENOBARBITAL AND BETA-NAPHTHOFLAVONE, Method: PREINCUBATION) “inactive; negative”; (Test System: UDS RAT HEPATOCYTES, Strain/Indicator: THY INCORP, Metabolic Activation: NONE, Method: AUTORADIOGRAPHY) “active; positive”.
For `O=C(O)C1=C/C(=N\Nc2ccc(-c3ccc(N=Nc4ccc(N/N=C5\C=CC(=O)C(C(=O)O)=C5)c5cc(S(=O)(=O)O)ccc45)cc3)cc2)C=CC1=O`, for the setting “Test System: AMES SALMONELLA TYPHIMURIUM, Strain/Indicator: TA98, Metabolic Activation: HAMSTER, LIVER, S-9, Method: PREINCUBATION (PRIVAL METHOD)”, the mutagenic call is “active; positive”.
On to `Cc1c(Cl)cnc2ccccc12`, for which the mutagenic call (Test System: AMES SALMONELLA TYPHIMURIUM, Strain/Indicator: TA100, Metabolic Activation: RAT, LIVER, S-9, Method: PREINCUBATION) was “inactive; negative”.
With `O=S1(=O)OC(c2cc(Br)c(O)c(Br)c2)(c2cc(Br)c(O)c(Br)c2)c2c(Br)c(Br)c(Br)c(Br)c21`, the mutagenic call was “inactive; negative” under setting [5]; “inactive; negative” under setting [6]; “inactive; negative” under setting [7]; “inactive; negative” under setting [8]; “inactive; negative” under setting [9]; “inactive; negative” under setting [10]. The mutagenic call under setting [3] was “inactive; negative”; the mutagenic call under setting [11] was “inactive; negative”; the mutagenic call under setting [12] is “inactive; negative”; the mutagenic call under setting [13] is “inactive; negative”; the mutagenic call (Test System: MOUSE LYMPHOMA, Strain/Indicator: L5178Y (TK+/TK-), Metabolic Activation: NONE, Method: SUSPENSION/PLATE) was “inactive; negative”; the mutagenic call (Test System: MOUSE LYMPHOMA, Strain/Indicator: L5178Y (TK+/TK-), Metabolic Activation: RAT, LIVER, S-9, AROCLOR 1254, Method: SUSPENSION/PLATE) is “inactive; negative”.
With `C1CCC2(CC1)CO2`, the mutagenic call under setting [7] is “inactive; negative”.
As to `BrCc1ccc2c(c1)-c1cccc3cccc-2c13`, the mutagenic call was “active; positive” under setting [5] and “active; positive” under setting [7].
With `O=C1c2ccccc2C(=O)c2c1ccc(O)c2O`, the mutagenic call is “inactive; negative” under setting [1]; “inactive; negative” (Test System: AMES SALMONELLA TYPHIMURIUM, Strain/Indicator: TA98, Metabolic Activation: RAT, LIVER, S-9, PCB, Method: PREINCUBATION); “inactive; negative” under setting [2]; “inactive; negative” under setting [7]; “inactive; negative” under setting [8]; “inactive; negative” under setting [4]. Further, the mutagenic call under setting [9] is “inactive; negative”; the mutagenic call under setting [10] is “inactive; negative”; the mutagenic call under setting [3] is “active; positive”; the mutagenic call under setting [11] is “active; positive”; the mutagenic call (Test System: AMES SALMONELLA TYPHIMURIUM, Strain/Indicator: TA1537, Metabolic Activation: RAT, LIVER, S-9, Method: PREINCUBATION) is “active; positive”; the mutagenic call under setting [12] is “inactive; negative”. Besides, the mutagenic call is “inactive; negative” under setting [13] and “active; positive” (Test System: UDS RODENT HEPATOCYTES, Strain/Indicator: THY INCORP (NON-S-PHASE), Metabolic Activation: NONE, Method: AUTORADIOGRAPHY).
Take `CCN(N=O)C(=O)N(C)C`: the mutagenic call was “active; positive” under setting [9] and “active; positive” (Test System: AMES SALMONELLA TYPHIMURIUM, Strain/Indicator: TA1535, Metabolic Activation: RAT, LIVER, S-9, BETA-NAPHTHOFLAVONE AND PHENOBARBITAL, Method: STANDARD PLATE).
`Cc1nc2c(c3[nH]c4ccccc4c13)C(=O)C=CC2=O`: the mutagenic call reads like this: (Test System: AMES SALMONELLA TYPHIMURIUM, Strain/Indicator: TA97, Metabolic Activation: NONE, Method: STANDARD PLATE) “inactive; negative”; (Test System: AMES SALMONELLA TYPHIMURIUM, Strain/Indicator: TA97, Metabolic Activation: RAT, LIVER, S-9, AROCLOR 1254, Method: STANDARD PLATE) “active; positive”; under setting [5], “active; positive”; under setting [6], “active; positive”; under setting [7], “inactive; negative”; under setting [8], “inactive; negative”. Further, the mutagenic call reads like this: (Test System: AMES SALMONELLA TYPHIMURIUM, Strain/Indicator: TA102, Metabolic Activation: NONE, Method: STANDARD PLATE) “inactive; negative”; (Test System: AMES SALMONELLA TYPHIMURIUM, Strain/Indicator: TA102, Metabolic Activation: RAT, LIVER, S-9, AROCLOR 1254, Method: STANDARD PLATE) “inactive; negative”.
